Data on 25 compounds can be found in patent US9346798B2, “Dihydrobenzoxazine and tetrahydroquinoxaline sodium channel inhibitors” (AMGEN INC., priority 2012, dated 2016).

Some results are limits rather than exact numbers.

Holding throughout (format): cell-based
Data set [1] deals with T1, Nav 1.7 (Homo sapiens (Human), UniProt Q15858). The data set can be described thus: Nav 1.7 in vitro PX assay, PatchXpress whole cell voltage clamp. The note with it: HEK 293 cells stably transfected with human Nav1.7; for IC50: partially inactivated state (20 to 50% inactivation); for inhibition at 4.9 µM: HEK293, values marked *, read-out: Nav 1.7 PX percent inhibition at 4.9 μM. The procedure, abridged: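 HEK293 cells stably expressing human Nav1.7, whole-cell voltage clamp at a holding potential giving 20–50% inactivation; currents elicited by 20 msec pulses to −10 mV at 0.1 Hz.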
T1 sequence (Q15858 whole entry): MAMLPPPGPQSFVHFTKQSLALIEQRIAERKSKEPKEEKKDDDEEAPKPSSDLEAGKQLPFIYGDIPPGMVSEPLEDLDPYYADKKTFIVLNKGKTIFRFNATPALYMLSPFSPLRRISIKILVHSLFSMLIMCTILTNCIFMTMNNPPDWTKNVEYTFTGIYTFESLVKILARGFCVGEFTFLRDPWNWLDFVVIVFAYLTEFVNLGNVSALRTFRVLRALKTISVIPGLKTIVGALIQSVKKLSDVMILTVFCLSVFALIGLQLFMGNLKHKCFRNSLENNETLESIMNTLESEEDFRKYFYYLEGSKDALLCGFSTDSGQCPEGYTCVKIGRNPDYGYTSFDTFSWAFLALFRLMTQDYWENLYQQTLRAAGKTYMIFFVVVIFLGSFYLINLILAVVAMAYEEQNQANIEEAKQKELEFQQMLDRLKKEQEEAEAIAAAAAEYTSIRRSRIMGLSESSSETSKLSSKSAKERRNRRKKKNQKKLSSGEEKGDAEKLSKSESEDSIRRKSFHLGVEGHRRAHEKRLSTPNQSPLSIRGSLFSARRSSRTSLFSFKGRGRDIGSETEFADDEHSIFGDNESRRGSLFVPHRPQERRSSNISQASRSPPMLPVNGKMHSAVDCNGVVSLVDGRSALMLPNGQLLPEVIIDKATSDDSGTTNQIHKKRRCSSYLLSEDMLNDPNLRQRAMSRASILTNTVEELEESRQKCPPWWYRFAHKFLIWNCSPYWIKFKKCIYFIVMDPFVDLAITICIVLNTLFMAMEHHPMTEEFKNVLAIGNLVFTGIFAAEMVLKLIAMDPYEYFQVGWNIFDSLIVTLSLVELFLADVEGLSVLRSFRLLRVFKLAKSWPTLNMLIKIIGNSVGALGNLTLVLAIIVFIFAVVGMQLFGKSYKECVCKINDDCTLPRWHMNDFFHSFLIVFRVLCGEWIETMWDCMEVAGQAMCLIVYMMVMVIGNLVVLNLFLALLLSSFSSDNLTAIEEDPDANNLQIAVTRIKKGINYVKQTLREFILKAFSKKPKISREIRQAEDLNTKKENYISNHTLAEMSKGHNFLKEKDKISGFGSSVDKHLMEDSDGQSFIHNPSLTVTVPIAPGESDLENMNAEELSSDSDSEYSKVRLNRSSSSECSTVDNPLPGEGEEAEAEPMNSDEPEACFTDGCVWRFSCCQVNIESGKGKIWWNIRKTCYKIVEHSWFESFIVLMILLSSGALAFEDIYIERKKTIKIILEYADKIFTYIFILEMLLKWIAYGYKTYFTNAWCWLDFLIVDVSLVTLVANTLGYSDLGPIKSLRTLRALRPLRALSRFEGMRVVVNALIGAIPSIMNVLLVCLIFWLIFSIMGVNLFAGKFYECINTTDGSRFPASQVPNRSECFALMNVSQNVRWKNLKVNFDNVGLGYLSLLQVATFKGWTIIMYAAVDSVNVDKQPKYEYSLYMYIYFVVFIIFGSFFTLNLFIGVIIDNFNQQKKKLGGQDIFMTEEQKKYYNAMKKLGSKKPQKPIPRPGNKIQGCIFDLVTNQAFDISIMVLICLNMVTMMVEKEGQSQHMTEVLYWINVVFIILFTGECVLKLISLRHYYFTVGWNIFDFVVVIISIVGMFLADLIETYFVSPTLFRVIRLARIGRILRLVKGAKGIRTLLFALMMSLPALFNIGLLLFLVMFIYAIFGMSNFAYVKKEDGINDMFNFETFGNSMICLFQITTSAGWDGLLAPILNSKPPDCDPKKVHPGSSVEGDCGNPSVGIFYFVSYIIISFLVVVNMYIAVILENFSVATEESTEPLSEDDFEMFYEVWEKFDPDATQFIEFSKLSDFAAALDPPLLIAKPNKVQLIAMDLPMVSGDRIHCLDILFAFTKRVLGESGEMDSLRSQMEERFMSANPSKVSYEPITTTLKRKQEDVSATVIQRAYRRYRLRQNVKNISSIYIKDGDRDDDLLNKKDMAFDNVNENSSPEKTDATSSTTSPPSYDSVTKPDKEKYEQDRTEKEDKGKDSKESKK

Data set [2] has as its target T1, Nav 1.7. The data set can be described thus: Nav 1.7 in vitro assay, IonWorks Quattro (IWQ) population patch-clamp. As to conditions: HEK 293 cells stably transfected with Nav 1.7; 26th pulse to -20 mV.
A further data set concerns the target Nav 1.5 (Homo sapiens (Human), UniProt Q14524). The data set can be described thus: Nav 1.5 in vitro assay, IonWorks Quattro (IWQ) population patch-clamp. As to conditions: HEK 293 cells stably transfected with Nav 1.5; 26th pulse to -20 mV.

Sequence of Nav 1.5 (Q14524 whole entry): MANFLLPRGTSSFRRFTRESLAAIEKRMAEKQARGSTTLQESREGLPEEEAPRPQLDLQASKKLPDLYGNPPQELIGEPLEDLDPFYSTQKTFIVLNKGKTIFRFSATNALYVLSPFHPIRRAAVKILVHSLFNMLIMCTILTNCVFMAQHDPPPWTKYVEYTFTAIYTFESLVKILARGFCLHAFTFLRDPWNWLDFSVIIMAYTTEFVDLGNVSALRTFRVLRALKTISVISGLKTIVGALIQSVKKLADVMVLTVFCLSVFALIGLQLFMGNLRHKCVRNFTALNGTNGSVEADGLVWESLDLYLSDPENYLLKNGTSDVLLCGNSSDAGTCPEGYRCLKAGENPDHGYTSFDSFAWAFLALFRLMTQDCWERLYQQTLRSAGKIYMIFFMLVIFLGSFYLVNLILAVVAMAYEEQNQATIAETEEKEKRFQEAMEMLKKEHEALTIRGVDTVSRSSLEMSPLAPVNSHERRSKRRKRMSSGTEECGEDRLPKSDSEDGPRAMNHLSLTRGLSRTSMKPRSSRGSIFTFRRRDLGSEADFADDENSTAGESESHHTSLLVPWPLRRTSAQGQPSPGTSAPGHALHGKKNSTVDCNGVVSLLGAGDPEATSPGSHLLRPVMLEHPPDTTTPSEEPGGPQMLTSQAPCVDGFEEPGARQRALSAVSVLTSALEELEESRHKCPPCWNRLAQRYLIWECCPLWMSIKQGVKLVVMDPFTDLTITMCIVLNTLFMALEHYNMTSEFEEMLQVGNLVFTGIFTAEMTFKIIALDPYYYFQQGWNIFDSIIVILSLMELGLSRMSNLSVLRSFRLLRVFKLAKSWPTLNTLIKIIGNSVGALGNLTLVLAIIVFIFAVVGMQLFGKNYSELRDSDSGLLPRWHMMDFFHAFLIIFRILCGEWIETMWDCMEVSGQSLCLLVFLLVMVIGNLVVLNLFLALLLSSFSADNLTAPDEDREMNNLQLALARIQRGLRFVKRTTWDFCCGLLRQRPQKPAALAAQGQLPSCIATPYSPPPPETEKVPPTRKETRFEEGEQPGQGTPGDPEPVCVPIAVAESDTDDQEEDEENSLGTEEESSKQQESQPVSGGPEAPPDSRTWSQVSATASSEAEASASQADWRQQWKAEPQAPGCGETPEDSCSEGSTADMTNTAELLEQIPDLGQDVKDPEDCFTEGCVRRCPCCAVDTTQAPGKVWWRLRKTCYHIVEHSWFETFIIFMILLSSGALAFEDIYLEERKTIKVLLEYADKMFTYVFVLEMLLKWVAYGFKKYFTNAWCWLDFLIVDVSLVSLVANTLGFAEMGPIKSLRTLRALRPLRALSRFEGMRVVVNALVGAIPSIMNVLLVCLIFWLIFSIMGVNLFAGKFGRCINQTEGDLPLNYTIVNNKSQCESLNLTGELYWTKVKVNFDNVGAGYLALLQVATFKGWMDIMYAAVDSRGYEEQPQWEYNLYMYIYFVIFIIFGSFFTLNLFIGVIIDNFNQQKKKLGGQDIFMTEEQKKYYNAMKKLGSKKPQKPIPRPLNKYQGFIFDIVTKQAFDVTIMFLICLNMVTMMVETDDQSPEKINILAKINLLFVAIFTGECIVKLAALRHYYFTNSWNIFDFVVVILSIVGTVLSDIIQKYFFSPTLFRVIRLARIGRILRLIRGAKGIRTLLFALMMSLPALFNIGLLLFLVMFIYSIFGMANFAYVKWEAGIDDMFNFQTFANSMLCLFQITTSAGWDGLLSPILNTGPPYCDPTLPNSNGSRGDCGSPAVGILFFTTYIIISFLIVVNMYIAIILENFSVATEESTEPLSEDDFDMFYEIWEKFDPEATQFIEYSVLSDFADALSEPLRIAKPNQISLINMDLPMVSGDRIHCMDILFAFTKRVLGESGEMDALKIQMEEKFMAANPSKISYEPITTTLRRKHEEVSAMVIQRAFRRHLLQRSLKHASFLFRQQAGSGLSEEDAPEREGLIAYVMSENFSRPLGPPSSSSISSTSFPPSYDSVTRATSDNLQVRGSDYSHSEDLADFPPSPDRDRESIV

Consider `O=S(=O)(Nc1nccs1)c1ccc2c(c1)OCCN2c1ccc(C(F)(F)F)cc1-c1ccncc1` [Example 53, 4-(2-(Pyridin-4-Yl)-4-(Trifluoromethyl)Phenyl)-N-(Thiazol-2-Yl)-3,4-Dihydro-2H-Benzo[B][1,4]Oxazine-7-Sulfonamide 2,2,2-Trifluoroacetate], for which the concentration for half-maximal inhibition (IC50) at Nav 1.7 [1] was 203 nM; at Nav 1.7 [2] it was 22.5 nM; against Nav 1.5 it was 554 nM.
With `O=S(=O)(Nc1nccs1)c1ccc2c(c1)OCCN2c1ccc(C(F)(F)F)cc1-c1cncnc1` [Example 54, 4-(2-(Pyrimidin-5-Yl)-4-(Trifluoromethyl)Phenyl)-N-(Thiazol-2-Yl)-3,4-Dihydro-2H-Benzo[B][1,4]Oxazine-7-Sulfonamide 2,2,2-Trifluoroacetate], the 50% inhibitory concentration (IC50) on Nav 1.7 [1] came to 585 nM; against Nav 1.7 [2], 11.5 nM; against Nav 1.5, 731 nM.
On to `O=S(=O)(Nc1ccno1)c1ccc2c(c1)OCCN2c1ccc(C(F)(F)F)cc1Cl` [Example 55, 4-(2-Chloro-4-(Trifluoromethyl)Phenyl)-N-(Isoxazol-5-Yl)-3,4-Dihydro-2H-Benzo[B][1,4]Oxazine-7-Sulfonamide], for which the 50% inhibitory concentration (IC50) against Nav 1.7 [1] was 19900 nM; against Nav 1.7 [2], 2920 nM; on Nav 1.5, over 10000 nM.
Regarding `N#Cc1cc(Cl)ccc1N1CCOc2cc(S(=O)(=O)Nc3nccs3)ccc21` [Example 56, 4-(4-Chloro-2-Cyanophenyl)-N-(Thiazol-2-Yl)-3,4-Dihydro-2H-Benzo[B][1,4]Oxazine-7-Sulfonamide], the IC50 against Nav 1.7 [1] stood at 265 nM; against Nav 1.7 [2], 51 nM; on Nav 1.5, 4790 nM.
Take `N#Cc1ccccc1N1CCOc2cc(S(=O)(=O)Nc3ncns3)ccc21` [Example 57, 4-(2-Cyanophenyl)-N-(1,2,4-Thiadiazol-5-Yl)-3,4-Dihydro-2H-Benzo[B][1,4]Oxazine-7-Sulfonamide]: the half-maximal inhibitory concentration (IC50) against Nav 1.7 [1] was 1930 nM; against Nav 1.7 [2] it was 154 nM; at Nav 1.5 it was 6700 nM.
Turning to `N#Cc1ccccc1N1CCOc2cc(S(=O)(=O)Nc3nccs3)ccc21` [Example 58, 4-(2-Cyanophenyl)-N-(Thiazol-2-Yl)-3,4-Dihydro-2H-Benzo[B][1,4]Oxazine-7-Sulfonamide 2,2,2-Trifluoroacetate], the IC50 against Nav 1.7 [1] is 2550 nM; against Nav 1.7 [2], 225 nM; against Nav 1.5, 6300 nM.
For the compound `O=S(=O)(Nc1nccs1)c1ccc2c(c1)OCCN2c1ccccc1C1=CCNCC1` [Example 59, 4-(2-(1,2,3,6-Tetrahydropyridin-4-Yl)Phenyl)-N-(Thiazol-2-Yl)-3,4-Dihydro-2H-Benzo[B][1,4]Oxazine-7-Sulfonamide 2,2,2-Trifluoroacetate], the results for the half-inhibitory concentration (IC50) against Nav 1.7 [1], against Nav 1.7 [2] and at Nav 1.5 were 252 nM, 15 nM and 5570 nM, respectively.
Turning to `O=S(=O)(Nc1ccccn1)c1ccc2c(c1)OCCN2c1ccc(C(F)(F)F)cc1Br` [Example 60, 4-(2-Bromo-4-(Trifluoromethyl)Phenyl)-N-(Pyridin-2-Yl)-3,4-Dihydro-2H-Benzo[B][1,4]Oxazine-7-Sulfonamide], the inhibition at 4.9 µM on Nav 1.7 [1] is 24.4%. Moreover, the IC50 against Nav 1.7 [2] is 1470 nM; on Nav 1.5, over 10000 nM.
For `O=S(=O)(Nc1cscn1)c1ccc2c(c1)OCCN2c1ccc(C(F)(F)F)cc1Br` [Example 61, 4-(2-Bromo-4-(Trifluoromethyl)Phenyl)-N-(Thiazol-4-Yl)-3,4-Dihydro-2H-Benzo[B][1,4]Oxazine-7-Sulfonamide], the IC50 on Nav 1.7 [1] is 2430 nM; on Nav 1.7 [2], 679 nM; on Nav 1.5, over 10000 nM.
As to `O=S(=O)(Nc1ccccn1)c1ccc2c(c1)OCCN2c1ccc(C(F)(F)F)cc1C1=CCNCC1` [Example 62, N-(Pyridin-2-Yl)-4-(2-(1,2,3,6-Tetrahydropyridin-4-Yl)-4-(Trifluoromethyl)Phenyl)-3,4-Dihydro-2H-Benzo[B][1,4]Oxazine-7-Sulfonamide], the IC50 on Nav 1.7 [1] was 282 nM; on Nav 1.7 [2], 49 nM; on Nav 1.5, over 10000 nM.
Take `O=S(=O)(Nc1cscn1)c1ccc2c(c1)OCCN2c1ccc(C(F)(F)F)cc1C1=CCNCC1` [Example 63, 4-(2-(1,2,3,6-Tetrahydropyridin-4-Yl)-4-(Trifluoromethyl)Phenyl)-N-(Thiazol-4-Yl)-3,4-Dihydro-2H-Benzo[B][1,4]Oxazine-7-Sulfonamide]: the concentration for half-maximal inhibition (IC50) against Nav 1.7 [1] was determined as 144 nM; on Nav 1.7 [2] it was 27 nM; at Nav 1.5, 2670 nM.
In the case of `[N-]=[N+]=Nc1ccc(N2CCOc3cc(S(=O)(=O)Nc4nccs4)ccc32)c(Br)c1` [Example 64, 4-(4-Azido-2-Bromophenyl)-N-(Thiazol-2-Yl)-3,4-Dihydro-2H-Benzo[B][1,4]Oxazine-7-Sulfonamide 2,2,2-Trifluoroacetate], the concentration for half-maximal inhibition (IC50) at Nav 1.7 [1] is 1070 nM; against Nav 1.7 [2], 418 nM; against Nav 1.5, over 10000 nM.
For the compound `[N-]=[N+]=Nc1ccc(N2CCOc3cc(S(=O)(=O)Nc4nccs4)ccc32)c(C2=CCNCC2)c1` [Example 65, 4-(4-Azido-2-(1,2,3,6-Tetrahydropyridin-4-Yl)Phenyl)-N-(Thiazol-2-Yl)-3,4-Dihydro-2H-Benzo[B][1,4]Oxazine-7-Sulfonamide Bis(2,2,2-Trifluoroacetate)], the IC50 against Nav 1.7 [1] is 24.4 nM; against Nav 1.7 [2], 24 nM; against Nav 1.5, 5280 nM.
Turning to `O=S(=O)(Nc1nccs1)c1ccc2c(c1)OCCN2c1ccc2ncccc2c1` [Example 66, 4-(Quinolin-6-Yl)-N-(Thiazol-2-Yl)-3,4-Dihydro-2H-Benzo[B][1,4]Oxazine-7-Sulfonamide 2,2,2-Trifluoroacetate], the inhibition at 4.9 µM on Nav 1.7 [1] came to 22.8%. Moreover, the results for the IC50 against Nav 1.7 [2] and against Nav 1.5 were 3730 nM and over 10000 nM, respectively.
With `Cc1ccc(Cl)c(N2CCOc3cc(S(=O)(=O)Nc4nccs4)ccc32)c1` [Example 67, 4-(2-Chloro-5-Methylphenyl)-N-(Thiazol-2-Yl)-3,4-Dihydro-2H-Benzo[B][1,4]Oxazine-7-Sulfonamide 2,2,2-Trifluoroacetate], the IC50 at Nav 1.7 [1] was found to be 442 nM; on Nav 1.7 [2], 381 nM; against Nav 1.5, 5330 nM.
With `O=S(=O)(Nc1nccs1)c1ccc2c(c1)OCCN2c1cccc2ccncc12` [Example 68, 4-(Isoquinolin-8-Yl)-N-(Thiazol-2-Yl)-3,4-Dihydro-2H-Benzo[B][1,4]Oxazine-7-Sulfonamide 2,2,2-Trifluoroacetate], the IC50 against Nav 1.7 [1] is 1750 nM; at Nav 1.7 [2], 158 nM; at Nav 1.5, 4830 nM.
`O=S(=O)(Nc1nccs1)c1ccc2c(c1)OCCN2c1ccc2nccnc2c1` [Example 69, 4-(Quinoxalin-6-Yl)-N-(Thiazol-2-Yl)-3,4-Dihydro-2H-Benzo[B][1,4]Oxazine-7-Sulfonamide 2,2,2-Trifluoroacetate]: at Nav 1.7 [1], the inhibition at 4.9 µM came to 33.9%. The half-maximal inhibitory concentration (IC50) was 3780 nM against Nav 1.7 [2] and 4440 nM on Nav 1.5.
For `O=S(=O)(Nc1nccs1)c1ccc2c(c1)OCCN2c1ccc2scnc2c1` [Example 70, 4-(Benzo[D]Thiazol-5-Yl)-N-(Thiazol-2-Yl)-3,4-Dihydro-2H-Benzo[B][1,4]Oxazine-7-Sulfonamide 2,2,2-Trifluoroacetate], the IC50 against Nav 1.7 [1] is 5690 nM; against Nav 1.7 [2], 638 nM; against Nav 1.5, over 10000 nM.
Consider `O=S(=O)(Nc1nccs1)c1ccc2c(c1)OCCN2c1ccc2ncsc2c1` [Example 71, 4-(Benzo[D]Thiazol-6-Yl)-N-(Thiazol-2-Yl)-3,4-Dihydro-2H-Benzo[B][1,4]Oxazine-7-Sulfonamide 2,2,2-Trifluoroacetate], for which the results for the half-inhibitory concentration (IC50) at Nav 1.7 [1], against Nav 1.7 [2] and at Nav 1.5 were 5320 nM, 605 nM and over 10000 nM, respectively.
Take `O=S(=O)(Nc1nccs1)c1ccc2c(c1)OCCN2c1ccc(Cl)c(Cl)c1` [Example 74, 4-(3,4-Dichlorophenyl)-N-(Thiazol-2-Yl)-3,4-Dihydro-2H-Benzo[B][1,4]Oxazine-7-Sulfonamide 2,2,2-Trifluoroacetate]: the 50% inhibitory concentration (IC50) at Nav 1.7 [1] worked out at 4070 nM; against Nav 1.7 [2] it was 5240 nM; against Nav 1.5 it was 6080 nM.
As to `Cc1cccc(N2CCOc3cc(S(=O)(=O)Nc4nccs4)ccc32)c1` [Example 75, N-(Thiazol-2-Yl)-4-(M-Tolyl)-3,4-Dihydro-2H-Benzo[B][1,4]Oxazine-7-Sulfonamide 2,2,2-Trifluoroacetate], the half-inhibitory concentration (IC50) is 706 nM against Nav 1.7 [1], 182 nM on Nav 1.7 [2] and 7370 nM on Nav 1.5.
For the compound `N#Cc1ccc(N2CCOc3cc(S(=O)(=O)Nc4nccs4)ccc32)cc1` [Example 76, 4-(4-Cyanophenyl)-N-(Thiazol-2-Yl)-3,4-Dihydro-2H-Benzo[B][1,4]Oxazine-7-Sulfonamide 2,2,2-Trifluoroacetate], the IC50 at Nav 1.7 [1] is 9230 nM; at Nav 1.7 [2], 871 nM; at Nav 1.5, 6030 nM.
For `Cc1c(F)cccc1N1CCOc2cc(S(=O)(=O)Nc3nccs3)ccc21` [Example 78, 4-(3-Fluoro-2-Methylphenyl)-N-(Thiazol-2-Yl)-3,4-Dihydro-2H-Benzo[B][1,4]Oxazine-7-Sulfonamide 2,2,2-Trifluoroacetate], the IC50 is 2220 nM at Nav 1.7 [1], 249 nM against Nav 1.7 [2] and over 10000 nM at Nav 1.5.
As to `Cc1ccc(F)cc1N1CCOc2cc(S(=O)(=O)Nc3nccs3)ccc21` [Example 79, 4-(5-Fluoro-2-Methylphenyl)-N-(Thiazol-2-Yl)-3,4-Dihydro-2H-Benzo[B][1,4]Oxazine-7-Sulfonamide 2,2,2-Trifluoroacetate], the IC50 was 1180 nM on Nav 1.7 [1], 216 nM against Nav 1.7 [2] and over 10000 nM on Nav 1.5.
In the case of `Cc1ccc(F)c(N2CCOc3cc(S(=O)(=O)Nc4nccs4)ccc32)c1` [Example 80, 4-(2-Fluoro-5-Methylphenyl)-N-(Thiazol-2-Yl)-3,4-Dihydro-2H-Benzo[B][1,4]Oxazine-7-Sulfonamide 2,2,2-Trifluoroacetate], the results for the concentration for half-maximal inhibition (IC50) against Nav 1.7 [1], against Nav 1.7 [2] and at Nav 1.5 were 340 nM, 126 nM and 5640 nM, respectively.
